Measurements: article PMC12621367, “Salvianolic acid C inhibits methane emissions in dairy cows by targeting MCR and reshaping the rumen microbial community” (Journal of Animal Science and Biotechnology, 2025)
pIC50: −log10 of the molar value.

Biological target: T1, Methyl-coenzyme M reductase (MCR)
T1 construct: gene mcrA; with McrB and McrG (β and γ subunits)
Experiment: MCR activity inhibition with a microbial MCR ELISA kit, dose-response, OD […] nm
Format: biochemical, Methanothermobacter marburgensis

`O=C(/C=C/c1ccc(O)c2oc(-c3ccc(O)c(O)c3)cc12)O[C@H](Cc1ccc(O)c(O)c1)C(=O)O` [SAC, Salvianolic acid C] showed a pIC50 of 3.16.
